Measured values: patent US12077503B2, “Substituted cyclic amides and their use as herbicides” (FMC CORPORATION, priority 2015, dated 2024)

Key:
Assay type in all cases: in vivo
[1] = test system: pigweed (Amaranthus retroflexus); experiment: Test A preemergence; conditions: Amaranthus retroflexus, pre-emergence, 240 h; for pest or weed control at 125 g/ha: 125 g ai/ha, Preemergence, visual injury rating after approximately 10 d, read-out: Pigweed plant response rating (0 to 100 scale, 0 is no effect, 100 is complete control); for pest or weed control at 500 g/ha: 500 g ai/ha, preemergence, visual injury rating about 10 d after treatment, 0 to 100 scale (0 no effect, 100 complete control), read-out: Pigweed plant response rating
[2] = test system: giant foxtail (Setaria faberii); experiment: Test A preemergence; conditions: Setaria faberi, pre-emergence, 240 h; for pest or weed control at 125 g/ha: 125 g ai/ha, Preemergence, visual injury rating after approximately 10 d, read-out: Foxtail, Giant plant response rating (0 to 100 scale, 0 is no effect, 100 is complete control); for pest or weed control at 500 g/ha: 500 g ai/ha, preemergence, visual injury rating about 10 d after treatment, 0 to 100 scale (0 no effect, 100 complete control), read-out: Foxtail, Giant plant response rating
In short: (§1)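 Visual injury scores from 0, no effect, to 100, complete control, were assigned versus untreated controls roughly 10 d after treatment in the greenhouse. Test chemicals, formulated with surfactant in a non-phytotoxic solvent, were applied to planted seeds as a preemergence soil spray or postemergence to one- to two-leaf plants 2 to 10 cm tall, in loam–sand soil.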

[3] = test system: barnyardgrass (Echinochloa crus-galli); experiment: Test A preemergence; conditions: Echinochloa crus-galli, pre-emergence, 240 h; for pest or weed control at 125 g/ha: 125 g ai/ha, Preemergence, visual injury rating after approximately 10 d, read-out: Barnyardgrass plant response rating (0 to 100 scale, 0 is no effect, 100 is complete control); for pest or weed control at 500 g/ha: 500 g ai/ha, preemergence, visual injury rating about 10 d after treatment, 0 to 100 scale (0 no effect, 100 complete control), read-out: Barnyardgrass plant response rating
In short: as §1

[4] = test system: ragweed (common ragweed, Ambrosia elatior); experiment: Test A preemergence; conditions: Ambrosia artemisiifolia, pre-emergence, 240 h; for pest or weed control at 125 g/ha: 125 g ai/ha, Preemergence, visual injury rating after approximately 10 d, read-out: Ragweed plant response rating (0 to 100 scale, 0 is no effect, 100 is complete control); for pest or weed control at 500 g/ha: 500 g ai/ha, preemergence, visual injury rating about 10 d after treatment, 0 to 100 scale (0 no effect, 100 complete control), read-out: Ragweed plant response rating
In short: as §1

Kochia (Kochia scoparia) [5] = experiment: Test A preemergence; conditions: Bassia scoparia, pre-emergence, 240 h; for pest or weed control at 125 g/ha: 125 g ai/ha, Preemergence, visual injury rating after approximately 10 d, read-out: Kochia plant response rating (0 to 100 scale, 0 is no effect, 100 is complete control); for pest or weed control at 500 g/ha: 500 g ai/ha, preemergence, visual injury rating about 10 d after treatment, 0 to 100 scale (0 no effect, 100 complete control), read-out: Kochia plant response rating
In short: as §1

[6] = test system: ryegrass, Italian (Italian ryegrass, Lolium multiflorum); experiment: Test A preemergence; conditions: Lolium multiflorum, pre-emergence, 240 h; for pest or weed control at 125 g/ha: 125 g ai/ha, Preemergence, visual injury rating after approximately 10 d, read-out: Ryegrass, Italian plant response rating (0 to 100 scale, 0 is no effect, 100 is complete control); for pest or weed control at 500 g/ha: 500 g ai/ha, preemergence, visual injury rating about 10 d after treatment, 0 to 100 scale (0 no effect, 100 complete control), read-out: Ryegrass, Italian plant response rating
In short: as §1

[7] = test system: pigweed (Amaranthus retroflexus); experiment: Test A postemergence; conditions: Amaranthus retroflexus, post-emergence, 240 h, read-out: Plant response rating, Pigweed; for pest or weed control at 125 g/ha: 125 g ai/ha, Postemergence, visual injury after approximately 10 d, 0 to 100 scale where 0 is no effect and 100 is complete control; for pest or weed control at 500 g/ha: 500 g ai/ha, postemergence, visual injury, 0 to 100 scale (0 no effect, 100 complete control), approx. 10 d
In short: as §1

corn (Zea mays) = experiment: Test A postemergence; conditions: Zea mays, post-emergence, 240 h; for Corn plant response rating (crop injury, 0 = no effect, 100 = complete kill) at 125 g/ha: 125 g ai/ha, Postemergence, visual injury after approximately 10 d, 0 to 100 scale where 0 is no effect and 100 is complete control; for Corn plant response rating (crop injury, 0 = no effect, 100 = complete kill) at 500 g/ha: 500 g ai/ha, postemergence, visual injury, 0 to 100 scale (0 no effect, 100 complete control), approx. 10 d
In short: as §1

[8] = test system: barnyardgrass (Echinochloa crus-galli); experiment: Test A postemergence; conditions: Echinochloa crus-galli, post-emergence, 240 h, read-out: Plant response rating, Barnyardgrass; for pest or weed control at 125 g/ha: 125 g ai/ha, Postemergence, visual injury after approximately 10 d, 0 to 100 scale where 0 is no effect and 100 is complete control; for pest or weed control at 500 g/ha: 500 g ai/ha, postemergence, visual injury, 0 to 100 scale (0 no effect, 100 complete control), approx. 10 d
In short: as §1

[9] = test system: ragweed (common ragweed, Ambrosia elatior); experiment: Test A postemergence; conditions: Ambrosia artemisiifolia, post-emergence, 240 h, read-out: Plant response rating, Ragweed; for pest or weed control at 125 g/ha: 125 g ai/ha, Postemergence, visual injury after approximately 10 d, 0 to 100 scale where 0 is no effect and 100 is complete control; for pest or weed control at 500 g/ha: 500 g ai/ha, postemergence, visual injury, 0 to 100 scale (0 no effect, 100 complete control), approx. 10 d
In short: as §1

[10] = test system: blackgrass (Alopecurus myosuroides); experiment: Test A postemergence; conditions: Alopecurus myosuroides, post-emergence, 240 h, read-out: Plant response rating, Blackgrass; for pest or weed control at 125 g/ha: 125 g ai/ha, Postemergence, visual injury after approximately 10 d, 0 to 100 scale where 0 is no effect and 100 is complete control; for pest or weed control at 500 g/ha: 500 g ai/ha, postemergence, visual injury, 0 to 100 scale (0 no effect, 100 complete control), approx. 10 d
In short: as §1

[11] = test system: wheat (Triticum aestivum); experiment: Test A postemergence; conditions: Triticum aestivum, post-emergence, 240 h, read-out: Plant response rating, Wheat; for plant injury at 125 g/ha: 125 g ai/ha, Postemergence, visual injury after approximately 10 d, 0 to 100 scale where 0 is no effect and 100 is complete control; for plant injury at 500 g/ha: 500 g ai/ha, postemergence, visual injury, 0 to 100 scale (0 no effect, 100 complete control), approx. 10 d
In short: as §1

Kochia (Kochia scoparia) [12] = experiment: Test A postemergence; conditions: Bassia scoparia, post-emergence, 240 h, read-out: Plant response rating, Kochia; for pest or weed control at 125 g/ha: 125 g ai/ha, Postemergence, visual injury after approximately 10 d, 0 to 100 scale where 0 is no effect and 100 is complete control; for pest or weed control at 500 g/ha: 500 g ai/ha, postemergence, visual injury, 0 to 100 scale (0 no effect, 100 complete control), approx. 10 d
In short: as §1

[13] = test system: Galium (catchweed bedstraw, Galium aparine); experiment: Test A postemergence; conditions: Galium, post-emergence, 240 h, read-out: Plant response rating, Galium; for pest or weed control at 125 g/ha: 125 g ai/ha, Postemergence, visual injury after approximately 10 d, 0 to 100 scale where 0 is no effect and 100 is complete control; for pest or weed control at 500 g/ha: 500 g ai/ha, postemergence, visual injury, 0 to 100 scale (0 no effect, 100 complete control), approx. 10 d
In short: as §1

[14] = test system: ryegrass, Italian (Italian ryegrass, Lolium multiflorum); experiment: Test A postemergence; conditions: Lolium multiflorum, post-emergence, 240 h, read-out: Plant response rating, Ryegrass, Italian; for pest or weed control at 125 g/ha: 125 g ai/ha, Postemergence, visual injury after approximately 10 d, 0 to 100 scale where 0 is no effect and 100 is complete control; for pest or weed control at 500 g/ha: 500 g ai/ha, postemergence, visual injury, 0 to 100 scale (0 no effect, 100 complete control), approx. 10 d
In short: as §1

| SMILES | pest or weed control at 125 g/ha [1] [%] | pest or weed control at 500 g/ha [1] [%] | pest or weed control at 125 g/ha [2] [%] | pest or weed control at 500 g/ha [2] [%] | pest or weed control at 125 g/ha [3] [%] | pest or weed control at 500 g/ha [3] [%] | pest or weed control at 125 g/ha [4] [%] | pest or weed control at 500 g/ha [4] [%] | pest or weed control at 125 g/ha (Kochia (Kochia scoparia) [5]) [%] | pest or weed control at 500 g/ha (Kochia (Kochia scoparia) [5]) [%] | pest or weed control at 125 g/ha [6] [%] | pest or weed control at 500 g/ha [6] [%] | pest or weed control at 125 g/ha [7] [%] | Corn plant response rating (crop injury, 0 = no effect, 100 = complete kill) at 125 g/ha (corn (Zea mays)) [%] | pest or weed control at 125 g/ha [8] [%] | pest or weed control at 125 g/ha [9] [%] | pest or weed control at 125 g/ha [10] [%] | plant injury at 125 g/ha [11] [%] | pest or weed control at 125 g/ha (Kochia (Kochia scoparia) [12]) [%] | pest or weed control at 125 g/ha [13] [%] | also measured |
| --- | --- | --- | --- | --- | --- | --- | --- | --- | --- | --- | --- | --- | --- | --- | --- | --- | --- | --- | --- | --- | --- |
| CN1CC[C@H](c2ccc(OC(F)(F)F)cc2)[C@@H](C(=O)Nc2cccc(F)c2F)C1=O [Compound 999] | 0 | 50 | 90 | 90 | 70 | 90 | 0 | 30 | 0 | 20 | 0 | 50 | 0 | 0 | 100 | 0 | 0 | 0 | 40 | 0 | pest or weed control at 125 g/ha [14]: 0% |
| Cc1ccc([C@H]2CN(C)C(=O)[C@@H]2C(=O)Nc2cccc(F)c2F)cc1Cl [Compound 1013] | 30 | 40 | 90 | 90 | 90 | 90 | 0 | 0 | 50 | 70 | 30 | 70 | 0 | 80 | 90 | 0 | 0 | 40 | 40 | 70 | pest or weed control at 500 g/ha [7]: 40%; Corn plant response rating (crop injury, 0 = no effect, 100 = complete kill) at 500 g/ha (corn (Zea mays)): 90%; pest or weed control at 500 g/ha [8]: 90%; pest or weed control at 500 g/ha [9]: 40%; pest or weed control at 500 g/ha [10]: 40%; plant injury at 500 g/ha [11]: 60%; pest or weed control at 500 g/ha (Kochia (Kochia scoparia) [12]): 60%; pest or weed control at 500 g/ha [13]: 70%; pest or weed control at 125 g/ha [14]: 0%; pest or weed control at 500 g/ha [14]: 60% |
| COc1ccc([C@H]2CN(C)C(=O)[C@@H]2C(=O)Nc2cccc(F)c2F)cc1F [Compound 1021] | 70 | 80 | 100 | 100 | 100 | 100 | 70 | 70 | 70 | 90 | 0 | 20 | 0 | 60 | 100 | 40 | 20 | 40 | 70 | 50 | pest or weed control at 500 g/ha [7]: 50%; Corn plant response rating (crop injury, 0 = no effect, 100 = complete kill) at 500 g/ha (corn (Zea mays)): 80%; pest or weed control at 500 g/ha [8]: 100%; pest or weed control at 500 g/ha [9]: 60%; pest or weed control at 500 g/ha [10]: 50%; plant injury at 500 g/ha [11]: 60%; pest or weed control at 500 g/ha (Kochia (Kochia scoparia) [12]): 70%; pest or weed control at 500 g/ha [13]: 70%; pest or weed control at 125 g/ha [14]: 40%; pest or weed control at 500 g/ha [14]: 70% |
